The values that follow come from paper PMC3657749 (Journal of medicinal chemistry, 2013).

Molecules are shown by their SMILES.

For assay [1], the system named is T-cell leukemia cell line Jurkat. Kind of assay: Cell viability assay. The format is cell-based.
For assay [2], the system named is LNCaP (androgen dependent prostate cancer). In words: Cell viability assay. The format is cell-based.
Assay [3] has as its system DU-145 (androgen independent prostate cancer). Kind of assay: Cell viability assay. It is filed as cell-based. Conditions: for DU-145 anti-proliferative activity (result in words): highest tested concentration 20 μM.
For a further assay, the target named is HDAC 1 (Homo sapiens, UniProt Q13547). Kind of assay: HDAC inhibition by SAMDI mass spectrometry, HDAC 1. The format is biochemical. Conditions: maximum tested concentration 10 μM.
HDAC 1, sequence (Q13547 whole entry): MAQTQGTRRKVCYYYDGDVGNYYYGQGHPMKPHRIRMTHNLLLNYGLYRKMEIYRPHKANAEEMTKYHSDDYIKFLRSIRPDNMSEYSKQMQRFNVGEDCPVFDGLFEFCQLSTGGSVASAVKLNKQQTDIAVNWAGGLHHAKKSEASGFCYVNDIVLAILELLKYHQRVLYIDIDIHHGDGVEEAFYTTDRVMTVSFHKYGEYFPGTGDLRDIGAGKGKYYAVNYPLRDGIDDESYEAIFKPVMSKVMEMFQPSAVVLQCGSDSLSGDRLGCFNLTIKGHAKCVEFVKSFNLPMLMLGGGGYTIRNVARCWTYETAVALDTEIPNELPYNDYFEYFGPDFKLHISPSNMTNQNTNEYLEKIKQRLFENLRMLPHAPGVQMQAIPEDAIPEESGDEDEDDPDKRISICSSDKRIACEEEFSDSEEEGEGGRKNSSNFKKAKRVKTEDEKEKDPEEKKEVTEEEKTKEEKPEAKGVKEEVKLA
The target in the next assay is T1, HDAC 8 (Homo sapiens, UniProt Q9BY41).
T1 sequence (Q9BY41 1-377): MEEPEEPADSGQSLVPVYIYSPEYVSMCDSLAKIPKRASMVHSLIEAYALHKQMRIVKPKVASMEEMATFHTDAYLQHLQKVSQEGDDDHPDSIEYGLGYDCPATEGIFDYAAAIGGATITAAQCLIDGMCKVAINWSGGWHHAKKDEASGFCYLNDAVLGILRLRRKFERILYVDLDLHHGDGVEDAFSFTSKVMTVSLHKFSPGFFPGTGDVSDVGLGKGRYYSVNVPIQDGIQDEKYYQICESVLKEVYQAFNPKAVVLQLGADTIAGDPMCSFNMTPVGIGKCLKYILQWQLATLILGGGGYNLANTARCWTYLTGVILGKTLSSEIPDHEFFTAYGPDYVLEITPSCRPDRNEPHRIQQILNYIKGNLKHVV
In words: HDAC inhibition by SAMDI mass spectrometry, HDAC 8. The format is biochemical. Conditions: for HDAC 8 inhibition (result in words): SAMDI, maximum tested concentration 10 μM; for HDAC 8 inhibition relative to 7c: fold more active than 7c.

Another assay has as its target T2, HDAC 6 (Homo sapiens, UniProt Q9UBN7).
T2 sequence (Q9UBN7 1-1215): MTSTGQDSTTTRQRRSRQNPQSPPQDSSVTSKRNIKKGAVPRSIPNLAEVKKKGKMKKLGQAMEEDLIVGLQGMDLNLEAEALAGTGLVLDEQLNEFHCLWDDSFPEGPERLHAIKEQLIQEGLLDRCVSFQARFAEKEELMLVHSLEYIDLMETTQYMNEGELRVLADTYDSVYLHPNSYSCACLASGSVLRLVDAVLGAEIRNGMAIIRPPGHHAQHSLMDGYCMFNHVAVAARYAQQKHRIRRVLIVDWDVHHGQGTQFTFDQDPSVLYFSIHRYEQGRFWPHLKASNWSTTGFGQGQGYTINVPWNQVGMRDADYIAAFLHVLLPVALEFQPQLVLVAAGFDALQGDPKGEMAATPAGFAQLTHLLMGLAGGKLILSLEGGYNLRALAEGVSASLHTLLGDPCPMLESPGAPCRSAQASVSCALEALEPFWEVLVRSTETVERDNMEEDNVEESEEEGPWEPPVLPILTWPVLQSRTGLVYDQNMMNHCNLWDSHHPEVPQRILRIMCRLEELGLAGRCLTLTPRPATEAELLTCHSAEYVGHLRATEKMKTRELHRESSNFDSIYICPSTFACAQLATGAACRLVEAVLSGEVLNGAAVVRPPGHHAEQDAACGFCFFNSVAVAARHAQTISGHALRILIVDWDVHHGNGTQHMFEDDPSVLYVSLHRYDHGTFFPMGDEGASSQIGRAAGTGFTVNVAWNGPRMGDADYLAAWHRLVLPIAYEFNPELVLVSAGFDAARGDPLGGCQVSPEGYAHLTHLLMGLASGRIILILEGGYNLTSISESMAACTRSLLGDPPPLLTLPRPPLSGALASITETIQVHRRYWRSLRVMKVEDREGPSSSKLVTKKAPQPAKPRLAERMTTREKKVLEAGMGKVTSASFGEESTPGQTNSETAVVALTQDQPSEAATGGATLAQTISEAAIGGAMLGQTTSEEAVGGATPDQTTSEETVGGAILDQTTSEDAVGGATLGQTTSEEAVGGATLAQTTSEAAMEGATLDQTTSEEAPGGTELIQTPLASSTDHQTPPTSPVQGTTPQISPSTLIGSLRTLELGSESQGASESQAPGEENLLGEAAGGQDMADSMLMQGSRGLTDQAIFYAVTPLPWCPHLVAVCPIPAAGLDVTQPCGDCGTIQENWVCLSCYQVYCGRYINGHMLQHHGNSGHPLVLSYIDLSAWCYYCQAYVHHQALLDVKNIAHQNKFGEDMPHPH
Kind of assay: HDAC inhibition by SAMDI mass spectrometry, HDAC 6. It is filed as biochemical. Conditions: maximum tested concentration 10 μM.

The subject of assay [4] is tubulin acetylation (HDAC6 inhibition) in LNCaP cell line. In words: Western blot analysis of tubulin acetylation. It is filed as cell-based. Conditions: LNCaP cells, 4 hours, at IC50 concentration and at 20 μM.
Assay [5] deals with Jurkat J.gamma1 (mutant Jurkat cell line, no detectable PLCγ1 activity). In words: Cell viability assay. It is filed as cell-based. Conditions: for IC50: Homo sapiens, Jurkat, 72 h, read-out: Cellular IC50(μM) Jurkat J.gammal.
A further assay deals with Jurkat J.gamma1. Conditions: mutant Jurkat cell line without detectable PLCγ1 activity; cited from earlier work.

The IC50 is the concentration that gives 50% inhibition. As for `Oc1ccc[nH]c1=S` [Compound 3-HPT, 3-hydroxypyridin-2-thione], in assay [1], the “Jurkat anti-proliferative activity (result in words)” value is “inactive”. In addition, the IC50 in assay [1] (Homo sapiens, Jurkat, 72 h, read-out: Cellular IC50(μM) Jurkat) is greater than 20 µM; in assay [2] (Homo sapiens, LNCaP, read-out: Cellular IC50(μM) LNCaP), greater than 20 µM; in [3] (Homo sapiens, DU-145, read-out: Cellular IC50(μM) DU-145), greater than 20 µM. Besides, the “LNCaP anti-proliferative activity (result in words)” value in [2] was “inactive”. Further, in assay [3], the “DU-145 anti-proliferative activity (result in words)” value was “inactive”. At HDAC 1, the “HDAC 1 inhibition (result in words)” value was “no inhibition”.

Turning to `Cn1cccc(O)c1=O` [Compound 5a, 1-Methyl-3-hydroxypyridin-2-one], the “HDAC 8 inhibition (result in words)” value at HDAC 8 is listed as “failed to inhibit”. The “HDAC 1 inhibition (result in words)” value at HDAC 1 is “failed to inhibit”. Further, the “HDAC 6 inhibition (result in words)” value on HDAC 6 is given as “failed to inhibit”.

For `O=c1c(O)cccn1Cc1ccccc1` [Compound 5b, 1-Benzyl-3-hydroxypyridin-2-one], the “HDAC 8 inhibition (result in words)” value at HDAC 8 is “failed to inhibit”. For the same compound, the “HDAC 1 inhibition (result in words)” value on HDAC 1 was “failed to inhibit”. Besides, the “HDAC 6 inhibition (result in words)” value on HDAC 6 is reported as “failed to inhibit”.

Turning to `O=c1c(O)cccn1Cc1ccc(-c2ccccc2)cc1` [Compound 5c, 1-(1,1'-Biphenylmethyl)-3-hydroxypyridin-2-one], the “HDAC 8 inhibition (result in words)” value on HDAC 8 is “failed to inhibit”. Moreover, the “HDAC 1 inhibition (result in words)” value on HDAC 1 is listed as “failed to inhibit”. In addition, at HDAC 6, the “HDAC 6 inhibition (result in words)” value was “failed to inhibit”.

Regarding `Oc1cccn(Cc2ccccc2)c1=S` [Compound 7b, 1-Benzyl-3-hydroxypyridin-2-thione], at HDAC 1, the “HDAC 1 inhibition (result in words)” value is given as “neither 7b nor 7c possess any measurable activity”.

`Oc1cccn(Cc2ccc(-c3ccccc3)cc2)c1=S` [Compound 7c, 1-(1,1'-Biphenylmethyl)-3-hydroxypyridin-2-thione]: the “HDAC 1 inhibition (result in words)” value at HDAC 1 was “neither 7b nor 7c possess any measurable activity”.

In the case of `N#Cc1ccc(-c2ccc(Cn3cccc(O)c3=S)cc2)cc1` [Compound 12a, 1-(4-Cyano-(1,1'-biphenylmethyl))-3-hydroxyoxypyridin-2-thione], the “HDAC 8 inhibition relative to 7c” value at HDAC 8 is “about 2 fold”.

As for `N#Cc1cccc(-c2ccc(Cn3cccc(O)c3=S)cc2)c1` [Compound 12b, 1-(3-Cyano-(1,1'-biphenylmethyl))-3-hydroxyoxypyridin-2-thione], the “HDAC 6 inhibition (result in words)” value on HDAC 6 is listed as “abrogation of HDAC 6 inhibition”.

Regarding `Cc1ccccc1-c1ccc(Cn2cccc(O)c2=S)cc1` [Compound 12f, 1-(2-Methyl-(1,1'-biphenylmethyl))-3-hydroxyoxypyridin-2-thione], the “tubulin acetylation (Western blot)” value in [4] is “increase in tubulin acetylation”. For the same compound, in assay [5], the “Jurkat J.gamma1 anti-proliferative activity (result in words)” value is reported as “non-cytotoxic” and the IC50 was greater than 20 µM. Further, the “DU-145 anti-proliferative activity (result in words)” value in assay [3] is on record as “weak activity”.

As to `CN(C)c1ccc(-c2ccc(Cn3cccc(O)c3=S)cc2)cc1` [Compound 12g, 1-(4-Dimethylamino-(1,1'-biphenylmethyl))-3-hydroxyoxypyridin-2-thione], in [5], the “Jurkat J.gamma1 anti-proliferative activity (result in words)” value is given as “devoid of anti-proliferative activity” and the IC50 is greater than 20 µM. The “HDAC 8 inhibition relative to 7c” value on HDAC 8 is “about 2 fold”. Moreover, the “HDAC 6 inhibition (result in words)” value at HDAC 6 is “loss of HDAC 6 inhibition”.

Regarding `CN(C)c1ccc(-c2ccc(Cn3cccc(O)c3=S)cc2)cn1` [Compound 12h], the “HDAC 8 inhibition (result in words)” value at HDAC 8 is listed as “loss of HDAC 8 inhibition”.

In the case of `O=c1c(O)cccn1Cc1cn(-c2ccccc2)nn1` [Compound 15a, 1-Phenyltriazolylmethyl-3-hydroxypyridin-2-one], the “HDAC 8 inhibition (result in words)” value at HDAC 8 is “inactive”. For the same compound, the “HDAC 1 inhibition (result in words)” value at HDAC 1 was “inactive”. For the same compound, the “HDAC 6 inhibition (result in words)” value on HDAC 6 is “inactive”.

As to `Oc1cccn(Cc2cn(-c3ccccc3)nn2)c1=S` [Compound 17a, 1-Phenyltriazolylmethyl-3-hydroxypyridin-2-thione], in [5], the “Jurkat J.gamma1 anti-proliferative activity (result in words)” value was “devoid of anti-proliferative activity” and the IC50 was greater than 20 µM. In addition, the “HDAC 8 inhibition relative to 7c” value at HDAC 8 is listed as 2 to 3 fold. For the same compound, the “HDAC 6 inhibition (result in words)” value on HDAC 6 was “only marginally inhibitory”.

As to `COc1ccc(Cn2ccc3ccc(C(=O)NO)cc32)cc1` [PCI-34051], the “apoptosis induction in Jurkat J.gamma1” value with Jurkat J.gamma1 is recorded as “lost its ability to induce apoptosis”.

With `O=C(CCCCCCC(=O)Nc1ccccc1)NO` [SAHA, suberoylanilide hydroxamic acid, reference compound], the “tubulin acetylation (Western blot)” value in assay [4] is reported as “concentration dependent tubulin hyperacetylation”. Further, in assay [5], the “Jurkat J.gamma1 anti-proliferative activity (result in words)” value was “non-cytotoxic”.
